Results as given in patent US20240270751A1, “Pyrazolopyridinone Compounds” (BeiGene Ltd., priority 2021, published 2024).

Legend:
DGKα = DGKα (Homo sapiens (Human), UniProt P23743); experiment: Biochemical DGK IC50 assay, DGKα ADP-Glo assay; conditions: 7.5 nM enzyme, 140 μM ATP, 80 μM DAG
Outline: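 Compounds at final 1.55˜10000 nM or 23.3˜150000 nM were tested against full-length DGKα. Substrate was lipid micelles of DAG and PS resuspended in 25 mM HEPES pH 7.0 with 0.5 mM EDTA and 160 mM octyl β-D-glucopyranoside. ADP formed was detected by ADP-Glo.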

DGKζ = DGKζ (Homo sapiens (Human), UniProt Q13574); experiment: Biochemical DGK IC50 assay, DGKζ ADP-Glo assay; conditions: 0.5 nM enzyme, 140 μM ATP, 80 μM DAG; read-out: DGKζ ADP-Glo assay IC50
Outline: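 ADP formation measured by ADP-Glo luminescence, with test compounds at final 1.55–10000 nM or 23.3–150000 nM. Enzyme: purified full-length human DGKζ from Sf9 insect cells; substrate: DAG/PS micelles in 25 mM HEPES pH 7.0, 0.5 mM EDTA, octyl glucoside.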

Chain of DGKα (P23743 whole entry): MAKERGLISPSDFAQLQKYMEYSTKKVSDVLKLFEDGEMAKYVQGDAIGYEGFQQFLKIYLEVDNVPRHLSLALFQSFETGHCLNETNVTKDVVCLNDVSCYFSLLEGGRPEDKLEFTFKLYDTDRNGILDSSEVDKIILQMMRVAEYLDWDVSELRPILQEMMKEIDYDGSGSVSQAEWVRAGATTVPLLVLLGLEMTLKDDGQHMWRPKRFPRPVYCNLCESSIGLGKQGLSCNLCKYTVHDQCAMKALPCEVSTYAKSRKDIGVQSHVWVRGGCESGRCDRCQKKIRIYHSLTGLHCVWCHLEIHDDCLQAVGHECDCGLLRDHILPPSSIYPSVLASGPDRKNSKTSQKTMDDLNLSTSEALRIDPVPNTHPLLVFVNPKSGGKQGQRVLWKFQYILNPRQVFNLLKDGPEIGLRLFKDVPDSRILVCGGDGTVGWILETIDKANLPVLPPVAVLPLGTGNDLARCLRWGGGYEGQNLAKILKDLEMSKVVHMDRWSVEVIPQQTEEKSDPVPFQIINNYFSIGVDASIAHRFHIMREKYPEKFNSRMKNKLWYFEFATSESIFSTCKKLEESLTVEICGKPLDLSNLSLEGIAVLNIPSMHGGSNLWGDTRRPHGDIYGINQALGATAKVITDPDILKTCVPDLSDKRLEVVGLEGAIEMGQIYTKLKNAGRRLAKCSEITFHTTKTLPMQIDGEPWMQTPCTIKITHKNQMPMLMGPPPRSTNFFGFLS
Chain of DGKζ (Q13574 other isoform, or with tags, fused parts or gaps): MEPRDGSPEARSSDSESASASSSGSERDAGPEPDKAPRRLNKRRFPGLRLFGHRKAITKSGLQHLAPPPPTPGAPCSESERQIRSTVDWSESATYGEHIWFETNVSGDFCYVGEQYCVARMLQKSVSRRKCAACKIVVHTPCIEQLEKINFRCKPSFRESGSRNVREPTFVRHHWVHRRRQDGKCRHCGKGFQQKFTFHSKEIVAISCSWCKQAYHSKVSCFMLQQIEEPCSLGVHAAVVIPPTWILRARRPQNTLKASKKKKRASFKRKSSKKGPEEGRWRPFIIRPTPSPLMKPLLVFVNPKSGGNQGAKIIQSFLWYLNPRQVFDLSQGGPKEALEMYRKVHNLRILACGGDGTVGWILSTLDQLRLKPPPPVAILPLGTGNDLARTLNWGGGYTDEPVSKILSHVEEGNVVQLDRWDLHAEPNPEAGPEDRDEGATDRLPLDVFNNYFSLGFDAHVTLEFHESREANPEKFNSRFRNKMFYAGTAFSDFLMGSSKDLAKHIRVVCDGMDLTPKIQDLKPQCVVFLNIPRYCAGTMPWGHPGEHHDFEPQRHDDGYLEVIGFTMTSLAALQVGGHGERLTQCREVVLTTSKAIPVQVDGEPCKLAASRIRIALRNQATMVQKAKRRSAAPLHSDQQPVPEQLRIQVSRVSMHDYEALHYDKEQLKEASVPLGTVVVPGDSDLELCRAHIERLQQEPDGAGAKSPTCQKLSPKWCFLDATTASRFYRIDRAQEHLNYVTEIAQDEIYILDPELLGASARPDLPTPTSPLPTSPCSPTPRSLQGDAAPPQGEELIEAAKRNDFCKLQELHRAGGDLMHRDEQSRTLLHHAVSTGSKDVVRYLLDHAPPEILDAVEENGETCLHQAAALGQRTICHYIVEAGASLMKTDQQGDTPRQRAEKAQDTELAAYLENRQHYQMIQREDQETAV

| SMILES | IC50 (DGKα) [µM] | IC50 (DGKζ) [µM] |
| --- | --- | --- |
| C[C@@H]1CN(c2cc(=O)n(C)c3c(C(F)(F)F)n(CC#N)nc23)[C@@H](C)CN1[C@@H](C)c1ccc2nccnc2c1 (single isomer, unassigned) [Compound A243, 2-(7-((2S,5R)-2,5-dimethyl-4-((S)-1-(quinoxalin-6-yl)ethyl)piperazin-1-yl)-4-methyl-5-oxo-3-(trifluoromethyl)-4,5-dihydro-2H-pyrazolo[4,3-b]pyridin-2-yl)acetonitrile or 2-(7-((2S,5R)-2,5-dimethyl-4-((R)-1-(quinoxalin-6-yl)ethyl)piperazin-1-yl)-4-methyl-5-oxo-3-(trifluoromethyl)-4,5-dihydro-2H-pyrazolo[4,3-b]pyridin-2-yl)acetonitrile] | > 10 | 1.35 |
| C[C@@H]1CN(c2cc(=O)n(C)c3c(C(F)(F)F)nn(CC#N)c23)[C@@H](C)CN1[C@@H](C)c1ccc2nccnc2c1 (single isomer, unassigned) [Compound A244, 2-(7-((2S,5R)-2,5-dimethyl-4-((S)-1-(quinoxalin-6-yl)ethyl)piperazin-1-yl)-4-methyl-5-oxo-3-(trifluoromethyl)-4,5-dihydro-1H-pyrazolo[4,3-b]pyridin-1-yl)acetonitrile or 2-(7-((2S,5R)-2,5-dimethyl-4-((R)-1-(quinoxalin-6-yl)ethyl)piperazin-1-yl)-4-methyl-5-oxo-3-(trifluoromethyl)-4,5-dihydro-1H-pyrazolo[4,3-b]pyridin-1-yl)acetonitrile] | > 10 | > 10 |
| CC(c1ccc2nccnc2c1)N1C[C@H](C)N(c2cc(=O)[nH]c3cn(CC#N)nc23)C[C@H]1C (single isomer, unassigned) [Compound A260, 2-(7-((2S,5R)-2,5-dimethyl-4-((R)-1-(quinoxalin-6-yl)ethyl)piperazin-1-yl)-5-oxo-4,5-dihydro-2H-pyrazolo[4,3-b]pyridin-2-yl)acetonitrile, or 2-(7-((2S,5R)-2,5-dimethyl-4-((S)-1-(quinoxalin-6-yl)ethyl)piperazin-1-yl)-5-oxo-4,5-dihydro-2H-pyrazolo[4,3-b]pyridin-2-yl)acetonitrile] | > 10 | 0.394 |
| Cc1c2c(nn1CC#N)c(N1C[C@@H](C)N(C(C)c3ccc(F)cc3C(F)(F)F)C[C@@H]1C)nc(=O)n2C (single isomer, unassigned) [Compound A267a] | > 10 | > 10 |
| Cc1cnc2cc([C@H](C)N3C[C@H](C)N(c4cc(=O)n(C)c5cn(CC#N)nc45)C[C@H]3C)ccc2n1 (single isomer, unassigned) [Compound A269a, 2-(7-((2S,5R)-2,5-dimethyl-4-((S)-1-(2-methylquinoxalin-6-yl)ethyl)piperazin-1-yl)-4-methyl-5-oxo-4,5-dihydro-2H-pyrazolo[4,3-b]pyridin-2-yl)acetonitrile, or 2-(7-((2S,5R)-2,5-dimethyl-4-((R)-1-(2-methylquinoxalin-6-yl)ethyl)piperazin-1-yl)-4-methyl-5-oxo-4,5-dihydro-2H-pyrazolo[4,3-b]pyridin-2-yl)acetonitrile] | > 10 | 0.365 |
| Cc1cnc2cc([C@H](C)N3C[C@H](C)N(c4cc(=O)n(C)c5cn(CC#N)nc45)C[C@H]3C)ccc2n1 (single isomer, unassigned) [Compound A269b, 2-(7-((2S,5R)-2,5-dimethyl-4-((S)-1-(2-methylquinoxalin-6-yl)ethyl)piperazin-1-yl)-4-methyl-5-oxo-4,5-dihydro-2H-pyrazolo[4,3-b]pyridin-2-yl)acetonitrile, or 2-(7-((2S,5R)-2,5-dimethyl-4-((R)-1-(2-methylquinoxalin-6-yl)ethyl)piperazin-1-yl)-4-methyl-5-oxo-4,5-dihydro-2H-pyrazolo[4,3-b]pyridin-2-yl)acetonitrile] | > 10 | 6.85 |
| CC[C@H]1CN(C(C)c2ccc(F)cc2C(F)(F)F)[C@H](CC)CN1c1cc(=O)n(C)c2c[nH]nc12 (single isomer, unassigned) [Compound A275a] | > 10 | 7.11 |
| CC[C@H]1CN(C(C)c2ccc(F)cc2C(F)(F)F)[C@H](CC)CN1c1cc(=O)n(C)c2c[nH]nc12 (single isomer, unassigned) [Compound A275b] | > 10 | 4.39 |
| CC[C@H]1CN(C(C)c2ccc3nc(OC)cnc3c2)[C@H](CC)CN1c1cc(=O)n(C)c2cn(CC#N)nc12 (single isomer, unassigned) [Compound A281a] | 6.65 | 0.077 |
| CC[C@H]1CN(C(C)c2ccc3nc(O)cnc3c2)[C@H](CC)CN1c1cc(=O)n(C)c2cn(CC#N)nc12 (single isomer, unassigned) [Compound A282a] | 0.182 | 5.35 |
| CC[C@H]1CN(C(C)c2ccc3nc(O)cnc3c2)[C@H](CC)CN1c1cc(=O)n(C)c2cn(CC#N)nc12 (single isomer, unassigned) [Compound A282b] | 10.5 | 6.96 |

Other lines, results leading:

| IC50 (DGKα) [µM] | IC50 (DGKζ) [µM] | SMILES |
| --- | --- | --- |
| > 10 | 2.61 | COC(C)c1cc(F)ccc1C(C)N1C[C@H](C)N(c2cc(=O)n(C)c3cn(CC#N)nc23)C[C@H]1C (single isomer, unassigned) [Compound A286a] |
| 51.5 | 0.017 | COC(C)c1cc(F)ccc1C(C)N1C[C@H](C)N(c2cc(=O)n(C)c3cn(CC#N)nc23)C[C@H]1C (single isomer, unassigned) [Compound A286b] |
| > 10 | 9.68 | CC(c1ccc(F)cc1CC#N)N1C[C@H](C)N(c2cc(=O)n(C)c3cn(CC#N)nc23)C[C@H]1C (single isomer, unassigned) [Compound A287a] |
| > 10 | 0.567 | CC(c1ccc(F)cc1CC#N)N1C[C@H](C)N(c2cc(=O)n(C)c3cn(CC#N)nc23)C[C@H]1C (single isomer, unassigned) [Compound A287b] |
| 66.1 | 0.09 | C=CCn1cc2c(n1)c(N1C[C@@H](C)N(C(C)c3ccc4nccnc4c3)C[C@@H]1C)cc(=O)n2C (single isomer, unassigned) [Compound A299, 2-allyl-7-((2S,5R)-2,5-dimethyl-4-((S)-1-(quinoxalin-6-yl)ethyl)piperazin-1-yl)-4-methyl-2,4-dihydro-5H-pyrazolo[4,3-b]pyridin-5-one, or 2-allyl-7-((2S,5R)-2,5-dimethyl-4-((R)-1-(quinoxalin-6-yl)ethyl)piperazin-1-yl)-4-methyl-2,4-dihydro-5H-pyrazolo[4,3-b]pyridin-5-one] |
| 54 | 0.524 | C=CCCn1cc2c(n1)c(N1C[C@@H](C)N(C(C)c3ccc4nccnc4c3)C[C@@H]1C)cc(=O)n2C (single isomer, unassigned) [Compound A300, 2-(but-3-en-1-yl)-7-((2S,5R)-2,5-dimethyl-4-((S)-1-(quinoxalin-6-yl)ethyl)piperazin-1-yl)-4-methyl-2,4-dihydro-5H-pyrazolo[4,3-b]pyridin-5-one, or 2-(but-3-en-1-yl)-7-((2S,5R)-2,5-dimethyl-4-((R)-1-(quinoxalin-6-yl)ethyl)piperazin-1-yl)-4-methyl-2,4-dihydro-5H-pyrazolo[4,3-b]pyridin-5-one] |
| 118 | > 10 | CC(c1ccc2ncc(CO)nc2c1)N1C[C@H](C)N(c2cc(=O)n(C)c3cn(CC#N)nc23)C[C@H]1C (single isomer, unassigned) [Compound A309a] |
| 87 | 0.369 | CC(c1ccc2ncc(CO)nc2c1)N1C[C@H](C)N(c2cc(=O)n(C)c3cn(CC#N)nc23)C[C@H]1C (single isomer, unassigned) [Compound A309b] |
| 116 | 8.29 | [2H]C([2H])([2H])c1cnc2ccc(C(C)N3C[C@H](C)N(c4cc(=O)n(C)c5cn(CC#N)nc45)C[C@H]3C)cc2n1 (single isomer, unassigned) [Compound A313a] |
| 61.6 | 0.051 | [2H]C([2H])([2H])c1cnc2ccc(C(C)N3C[C@H](C)N(c4cc(=O)n(C)c5cn(CC#N)nc45)C[C@H]3C)cc2n1 (single isomer, unassigned) [Compound A313b] |
| 0.308 | 0.978 | CC#CCn1cc2c(n1)c(N1C[C@@H](CC)N(C(C)c3ccc(C(F)(F)F)cc3F)C[C@@H]1CC)cc(=O)n2C (single isomer, unassigned) [Compound A334a] |
| 0.893 | > 10 | CC#CCn1cc2c(n1)c(N1C[C@@H](CC)N(C(C)c3ccc(C(F)(F)F)cc3F)C[C@@H]1CC)cc(=O)n2C (single isomer, unassigned) [Compound A334b] |
| 0.173 | 4.8 | CC[C@H]1CN(C(C)c2ccc(C(F)F)cn2)[C@H](CC)CN1c1cc(=O)n(C)c2cn(CC#N)nc12 (single isomer, unassigned) [Compound A347a] |
| 0.008 | 0.223 | CC[C@H]1CN(C(C)c2ccc(C(F)F)cn2)[C@H](CC)CN1c1cc(=O)n(C)c2cn(CC#N)nc12 (single isomer, unassigned) [Compound A347b] |
| 0.177 | 3.88 | CC[C@H]1CN(C(C)c2ccc(C(F)(F)F)cn2)[C@H](CC)CN1c1cc(=O)n(C)c2cn(CC#N)nc12 (single isomer, unassigned) [Compound A348a] |
| 0.009 | 0.138 | CC[C@H]1CN(C(C)c2ccc(C(F)(F)F)cn2)[C@H](CC)CN1c1cc(=O)n(C)c2cn(CC#N)nc12 (single isomer, unassigned) [Compound A348b] |
| 0.49 | 0.462 | CC[C@H]1CN(C(C)c2ccc(C)nc2)[C@H](CC)CN1c1cc(=O)n(C)c2cn(CC#N)nc12 (single isomer, unassigned) [Compound A349a] |
